Test results published in publication PMC8079033, “Design, synthesis, anticancer evaluation, and molecular modelling studies of novel tolmetin derivatives as potential VEGFR-2 inhibitors and apoptosis inducers” (Journal of Enzyme Inhibition and Medicinal Chemistry, 2021).

Assays:
Assay in all cases: NCI 60-cell line one-dose antiproliferative screen (SRB)
Assay type in all cases: cell-based
A498 = settings: Homo sapiens, read-out: growth inhibition % (GI%)
Summary of the method: (§1)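 Sulforhodamine B assay, 515 nm: percent growth relative to untreated control and time-zero cell number after a 48 h incubation with 10 µM compound at 37 °C, reported as GI%.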

A549/ATCC = settings: Homo sapiens, read-out: growth inhibition % (GI%)
Summary of the method: as §1

BT-5 = settings: Homo sapiens, read-out: growth inhibition % (GI%)
Summary of the method: as §1

EKVX = settings: Homo sapiens, read-out: growth inhibition % (GI%)
Summary of the method: as §1

HOP-92 = settings: Homo sapiens, read-out: growth inhibition % (GI%)
Summary of the method: as §1

IGROV1 = settings: Homo sapiens, IGROV-1, read-out: growth inhibition % (GI%)
Summary of the method: as §1

K-562 = settings: Homo sapiens, K562, read-out: growth inhibition % (GI%)
Summary of the method: as §1

LOX IMVI = settings: Homo sapiens, read-out: growth inhibition % (GI%)
Summary of the method: as §1

MCF7 = settings: Homo sapiens, read-out: growth inhibition % (GI%)
Summary of the method: as §1

MDA-MB-231/ATCC = settings: Homo sapiens, read-out: growth inhibition % (GI%)
Summary of the method: as §1

MDA-MB-468 = settings: Homo sapiens, read-out: growth inhibition % (GI%)
Summary of the method: as §1

MOLT-4 = settings: Homo sapiens, read-out: growth inhibition % (GI%)
Summary of the method: as §1

NCI-H322M = settings: Homo sapiens, read-out: growth inhibition % (GI%)
Summary of the method: as §1

NCI-H460 = settings: Homo sapiens, read-out: growth inhibition % (GI%)
Summary of the method: as §1

NCI-H522 = settings: Homo sapiens, read-out: growth inhibition % (GI%)
Summary of the method: as §1

NCI/ADR-RES = settings: Homo sapiens, read-out: growth inhibition % (GI%)
Summary of the method: as §1

OVCAR-5 = settings: Homo sapiens, read-out: growth inhibition % (GI%)
Summary of the method: as §1

OVCAR-8 = settings: Homo sapiens, read-out: growth inhibition % (GI%)
Summary of the method: as §1

PC-3 = settings: Homo sapiens, read-out: growth inhibition % (GI%)
Summary of the method: as §1

RPMI-8226 = settings: Homo sapiens, read-out: growth inhibition % (GI%)
Summary of the method: as §1

RXF 393 = settings: Homo sapiens, read-out: growth inhibition % (GI%)
Summary of the method: as §1

SF-295 = settings: Homo sapiens, read-out: growth inhibition % (GI%)
Summary of the method: as §1

SF-539 = settings: Homo sapiens, read-out: growth inhibition % (GI%)
Summary of the method: as §1

SN 12 C = settings: Homo sapiens, SN12C, read-out: growth inhibition % (GI%)
Summary of the method: as §1

SNB-19 = settings: Homo sapiens, read-out: growth inhibition % (GI%)
Summary of the method: as §1

SNB-75 = settings: Homo sapiens, read-out: growth inhibition % (GI%)
Summary of the method: as §1

SW-620 = settings: Homo sapiens, read-out: growth inhibition % (GI%)
Summary of the method: as §1

T-47D = settings: Homo sapiens, T47D, read-out: growth inhibition % (GI%)
Summary of the method: as §1

U251 = settings: Homo sapiens, U-251, read-out: growth inhibition % (GI%)
Summary of the method: as §1

UACC-62 = settings: Homo sapiens, read-out: growth inhibition % (GI%)
Summary of the method: as §1

786-0 = settings: Homo sapiens, read-out: growth inhibition % (GI%)
Summary of the method: as §1

HL-60 (TB) = settings: Homo sapiens, read-out: growth inhibition % (GI%)
Summary of the method: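 Read-out is SRB absorbance at 515 nm after 48 h treatment at 10 µM. Percent growth is calculated from time-zero, control and treated readings, then expressed as growth inhibition percentage, so both inhibition and cell kill register.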

OVCAR-4 = settings: Homo sapiens, read-out: growth inhibition % (GI%)
Summary of the method: as §1

Structure (SMILES) | inhibition at 10 µM (A498) [%] | inhibition at 10 µM (A549/ATCC) [%] | inhibition at 10 µM (BT-5) [%] | inhibition at 10 µM (EKVX) [%] | inhibition at 10 µM (IGROV1) [%] | inhibition at 10 µM (K-562) [%] | inhibition at 10 µM (LOX IMVI) [%] | inhibition at 10 µM (MCF7) [%] | inhibition at 10 µM (MDA-MB-231/ATCC) [%] | inhibition at 10 µM (MDA-MB-468) [%] | inhibition at 10 µM (MOLT-4) [%] | inhibition at 10 µM (NCI-H322M) [%] | inhibition at 10 µM (NCI-H522) [%] | inhibition at 10 µM (NCI/ADR-RES) [%] | inhibition at 10 µM (OVCAR-5) [%] | inhibition at 10 µM (OVCAR-8) [%] | inhibition at 10 µM (PC-3) [%] | inhibition at 10 µM (RPMI-8226) [%] | inhibition at 10 µM (RXF 393) [%] | inhibition at 10 µM (SF-295) [%] | also measured
Cc1ccc(C(=O)c2ccc(CC(=O)NNC(=O)Nc3ccc(Cl)c(C(F)(F)F)c3)n2C)cc1 [Compound 8c, N-(4-Chloro-3-(trifluoromethyl)phenyl)-2–(2-(1-methyl-5–(4-methylbenzoyl)-1H-pyrrol-2-yl)acetyl)hydrazinecarboxamide] | 18.3 | 21.7 | 11.4 | < 10 | 36.1 | < 10 | 10.5 | 21.7 | 16.7 | 17.5 | 19.2 | 14.4 | 21.1 | < 10 | 10.9 | 10.9 | 22.4 | 11.3 | < 10 | < 10 | inhibition at 10 µM (HOP-92): 13.5%; inhibition at 10 µM (NCI-H460): 16.8%; inhibition at 10 µM (SF-539): < 10%; inhibition at 10 µM (SN 12 C): 10.5%; inhibition at 10 µM (SNB-19): 25.8%; inhibition at 10 µM (SNB-75): 35.7%; inhibition at 10 µM (SW-620): 10.6%; inhibition at 10 µM (T-47D): 13.8%; inhibition at 10 µM (U251): < 10%; inhibition at 10 µM (UACC-62): 19.7%
Cc1ccc(C(=O)c2ccc(CC(=O)NN3C(=O)C=CC3=O)n2C)cc1 [Compound 7b, N-(2,5-Dioxo-2,5-dihydro-1H-pyrrol-1-yl)-2–(1-methyl-5–(4-methylbenzoyl)-1H-pyrrol-2-yl)acetamide] | 10.7 | 12.8 | < 10 | 25.7 | 22.2 | 16.5 | 11.1 | 13.2 | 11.6 | < 10 | 14 | < 10 | 15.9 | 12.3 | < 10 | < 10 | 10.7 | < 10 | 13 | < 10 | inhibition at 10 µM (786-0): < 10%; inhibition at 10 µM (HL-60 (TB)): 10.6%; inhibition at 10 µM (OVCAR-4): < 10%; inhibition at 10 µM (SF-539): < 10%; inhibition at 10 µM (SN 12 C): 14.8%; inhibition at 10 µM (SNB-19): 11%; inhibition at 10 µM (SNB-75): 16%; inhibition at 10 µM (SW-620): < 10%; inhibition at 10 µM (T-47D): 25.5%; inhibition at 10 µM (U251): < 10%; inhibition at 10 µM (UACC-62): < 10%
